Source: patent US9815883B2, “Inhibiting peptides derived from TREM-like transcript 1 (TLT-1) and uses thereof” (Institut National de la Sante et de la Recherche Medicale …, priority 2010, dated 2017)

Assays:
[1] = test system: TREM-1 ligand expressed on resting or thrombin-activated human platelets; experiment: Flow cytometry binding of FITC-labelled peptides to human platelets
Protocol: (B) Flow cytometry analysis of FITC-labelled LR17 (1 or 5 μg/mL) binding to TREM-1 ligand expressed on resting or thrombin-activated (5 UI/mL) human platelets is reversed by co-incubation with unlabelled LR17, sTLT-1 or LP17, a TREM-1 derived peptide.
Acid Citrate Dextrose blood samples were centrifuged (100 g, 10 min) to obtain Platelet-Rich Plasma. PRP was then centrifuged (550 g, 10 min) over a 36% (wt/vol) BSA gradient and platelets collected from the interphase before being washed in Tyrode's salts buffer (Sigma-Aldrich) supplemented with 5 mM EGTA. For activation, platelets were incubated for 30 minutes with 5 U/mL thrombin (Sigma-Aldrich) or 1 μg/mL E. Coli LPS (0111:B4, Sigma-Aldrich) at 37° C. and subsequently fixed with 2% (wt/vol) paraphormaldehyde (PFA, Sigma-Aldrich). Residual PFA was removed by two additional washing steps in Tyrode buffer. Activation was assessed by anti-CD62P (Beckman Coulter).
(§1) Isolated cells (neutrophils, monocytes or platelets) were blocked for aspecific binding with 10% human Ig (Sigma-Aldrich) for 1 hour on ice. Cells were incubated with recombinant soluble FITC-labelled TLT-1-peptides, FITC-labelled LP17 (or corresponding FITC-labelled scrambled peptides), PE-labelled anti-TREM-1 mAb (R&Dsystems), CD62P-FITC, CD66b-PE, CD45-PE, CD14-FITC (all from Beckman Coulter)

neutrophils or monocytes = experiment: Flow cytometry binding to neutrophils or monocytes; set-up: species or system human; conditions: cells not expressing TREM-1 ligand
Protocol: PMNs were isolated by a Sodium Diatrizoate 13.8%/Dextran 500 8.0% density gradient (polymorphprep, AbCys). Monocytes were isolated by negative cell-sorting of PB-MNCs by Monocytes Isolation Kit II (Miltenyi). Cells were then washed twice with PBS (BioMerieux) and resuspended in complete medium (RPMI 1640 containing 100 UI/mL penicillin, 100 μg/mL streptomycin, […] Amphotericin B and 10% FCS, Eurobio) before stimulation. Purity was assessed by flow cytometry (anti-CD45, -CD14 and -CD66b, Beckman Coulter).
as §1

TREM-1 = experiment: ROS production by neutrophils (DCFDA, flow cytometry); type: cell-based, human; conditions: peptide 30 μg/mL
Protocol: (D) ROS production: Flow cytometric quantification (DCFDA reduction) of neutrophils ROS production after 2 hours stimulation.
(§2) The quantitative determination of neutrophil phagocytosis and oxidative burst was performed by flow cytometry using the Phagotest and the Bursttest (Orpegen Pharma, Heidelberg, Germany) following the manufacturers' recommendations. A FITC-labelled opsonized E. coli was used to determine the general phagocytic activity (ingestion of one or more bacteria per cell) and the individual cellular phagocytic activity (number of bacteria per cell). For evaluation of oxidative burst activity, unlabeled opsonized E. coli, fMLP, PMA LPS and activated- or non-activated-platelets (30:1) were used as stimulants and DCFDA as a fluoregenic substrate (Invitrogen) accordingly with manufacturers' instructions.

human neutrophils = experiment: Neutrophil phagocytosis and oxidative burst (Phagotest, Bursttest); type: cell-based
Protocol: Data (mean±SD) are representative of 6 different experiments.
as §2

[2] = test system: Trem-1 silenced human monocytes; experiment: TNF-α production by Trem-1 silenced monocytes; type: cell-based; conditions: Trem-1 siRNA; LPS/anti-TREM-1 mAb
Protocol: (I) ELISA of TNF-α produced by native or Trem-1 silenced human monocytes.
TREM-1 silencing was performed with Human Monocyte Nucleofector Kit (Amaxa) using siRNA sequences obtained from Qiagen. Isolated monocytes were electroporated with siRNA (without siRNA and with siRNA without electroporation as negative control, and with a GFP-reporter plasmid for positive control) and cultured for 24 hours in Human Monocyte Nucleofector Medium (Amaxa) before stimulation. TREM-1 expression was then assessed by quantitative RT-PCR and flow cytometry 24 hours after transfection. Medium was changed and monocytes were stimulated with LPS, anti-TREM-1 mAb and TLT-1-peptides for 24 hours. Therefore, medium was collected for cytokine measurement.

male Balb/c mice = experiment: Caecal ligation and puncture (CLP) polymicrobial sepsis model; type: in vivo, mouse
Protocol: Adult male Balb/c mice (20-23 g) were subjected to caecal ligation and puncture under isoflurane anaesthesia and were randomly grouped (n=5-10 per group) to receive a single LR17 (100 μg in 0.2 mL NaCl 0.9%), scrambled-LR17 ([…] in 0.2 mL NaCl 0.9%), or 0.2 mL NaCl 0.9% i.p. injection. After 24 hours, animals were killed under anaesthesia. Results are mean±SD. p values are *p<0.05, **p<0.01, ***p<0.001 compared with control animals.
(A-B) Adult male Balb/c mice (20-23 g) were subjected to caecal ligation and puncture under isoflurane anaesthesia and were randomly grouped (n=25-40 per group) to receive a LR17, scrambled-LR17, or 0.2 mL NaCl 0.9% i.p. injection at indicated times. Survival was monitored over 1 wk and analyzed by Log Rank test.
Male Balb/c mice (4-6 weeks) were anesthetized with isoflurane. The cecum was exposed through a 1.0 cm abdominal midline incision and subjected to a ligation of the distal half followed by one puncture with a G21 needle. A small amount of stool was expelled from the puncture to ensure patency. The cecum was replaced into the peritoneal cavity and the abdominal incision closed in two layers. After surgery, all mice were injected s.c. with 0.5 mL of 0.9% NaCl solution for fluid resuscitation. The animals were randomly grouped and treated LR17 or LR17-scrambled as control in 250 μL 0.9% NaCl solution and administered i.p. In order to determine the effect of various doses of LR17 at different times, mice were treated with 50, 100 or 200 μg of LR17 at H1 after surgery, or with 3 injections of 100 μg at 2, 6 and 24 hours or with 100 μg in one injection at 24 hours after CLP and then monitored for survival. Five additional animals per group were killed under anaesthesia at 24 h after CLP for the determination of bacterial count and cytokines levels. Peritoneal lavage fluid was obtained using 2 mL RPMI 1640 (EuroBio), and blood was collected by cardiac puncture. Concentrations of plasma cytokines were determined by ELISA (R&Dsystems). For the assessment of bacterial counts, blood and crushed spleen were plated in serial log dilutions on tryptic soy supplemented with 5% sheep blood agar plates. After plating, tryptic soy agar plates were incubated at 37° C. aerobically for 24 h and anaerobically for 48 h. Results are expressed as CFU per ml of blood or per gram of spleen.

[3] = competition with unlabelled substance

In the case of “LQEEDAGEYGCMVDGAR (listed as Homo sapiens) [LR17]”, the “binding of FITC-labelled LR17 to platelets” value ([1]; FITC-labelled peptide 1 or 5 μg/mL, resting or thrombin-activated (5 UI/mL) platelets) is reported as “binds both to resting and thrombin-activated platelets”, the “effect of co-incubation on FITC-labelled LP17 binding to platelets” value [1, 3] is reported as “decreased” and the “effect of co-incubation on FITC-labelled LR17 binding to platelets” value [1, 3] is reported as “reversed”. The “binding to neutrophils or monocytes” value (neutrophils or monocytes) was “did not bind”, the “intracellular ROS production” value (TREM-1; LPS 0.1 μg/mL with or without αTREM-1) was “decreased” and the “ROS production by neutrophils” value (TREM-1; TREM-1 agonist and platelets as inducers, 2 hours) was “partly prevented”. The “neutrophil oxidative burst mediated by E. coli” value (human neutrophils) was “decreased”, the “neutrophils' phagocytic properties” value (human neutrophils; E. coli) was “did not alter” and the “PMA- or fMLP-induced oxidative burst” value (human neutrophils; not shown) was “no action”. For the same sequence, the “TNF-α synthesis by silenced monocytes” value [2] was “did not show any effect”, the “plasma IL-6 and IL-10 concentrations” value (male Balb/c mice; 100 μg i.p. 2 hours after surgery, 24 hours after surgery) was “decreased” and the “repeated injections versus single dose administration” value (male Balb/c mice; 3 injections of 100 μg at 2, 6 and 24 hours) was “not superior”. The “protection against lethality (survival)” value (male Balb/c mice; 50, 100 or 200 μg, also administered 24 h after onset of sepsis, survival over 1 wk, Log Rank test) was “dose-dependent significant protection”, the “septicaemia (blood bacterial counts)” value (male Balb/c mice; 24 hours) was “almost completely prevented septicaemia” and the “IL-6 and IL-10 in broncho-alveolar lavage fluid and peritoneal lavage fluid” value (male Balb/c mice; 24 hours after surgery) was “decreased”. For the same sequence, the lung histological alterations (male Balb/c mice; 24 hours after the CLP) was “attenuated”, the “cell infiltration in peritoneum and alveolar space” value (male Balb/c mice; mouse, in vivo) was “reduced” and the “coagulation abnormalities (D-dimer and TATc plasma and alveolar concentrations)” value (male Balb/c mice; mouse, in vivo) was “prevented”. For the same sequence, the “plasma levels of C5a, IL-1ra, IL16, MCP-1, MIP-la, MIP-2 (cytokine array)” value (male Balb/c mice; mouse, in vivo) was “decreased concentration”.
